Measured values: US20060235076A1, “Medicinal composition for treating infection with drug-resistant staphylococcus aureus” (priority 2003, published 2006)
Values after ≈ are worked out from the molar mass of the structure shown. Like-named read-outs stand apart in the source and are kept apart here.

How the values were obtained:
[1] = tested on: MRSA COL and MRSA Strain No. 5; assay: Potentiating effect of various gallates for antibacterial activity of oxacillin (MIC by broth microdilution method and FIC); assay type: cell-based, Staphylococcus aureus; settings: for antibacterial activity when used alone: COL Strain and Strain No. 5; for FIC value: combination with oxacillin
Protocol: According to the broth microdilution method defined by Japan Society of Chemotherapy, MIC was determined. CAMHA was prepared by adding 50 mg/l of Ca-ion, 25 mg/l of Mg-ion, and 2% of NaCl to MHB (Mueller-Hinton Broth), and it was used as a medium for use in the measurement of sensitivity. In 96-well microplates 100 μl of the medium for use in the measurement of sensitivity containing drugs was dispensed. The bacterial liquid was incubated at 37° C. overnight, diluted with saline and added to the plate so that the final concentration of the bacteria was 5×10^5 CFU/well. […] FIC (fractional inhibitory concentration) was calculated from the result and the potency of the effect of the combination use was evaluated.

MRSA and MSSA = assay: Antibacterial activity of gallic acid, various gallates and multivalent phenol derivatives alone (agar plate dilution method, MIC); assay type: cell-based, Staphylococcus aureus; settings: Staphylococcus aureus
Summary of the method: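 Agar plate dilution MIC per Japan Society of Chemotherapy, on Mueller-Hinton II agar supplemented with 50 mg/l Ca-ion, 25 mg/l Mg-ion and 2% NaCl. Inoculum grown overnight at 37 °C and diluted in saline to 10^6 CFU/ml. Compounds tested alone.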

[2] = MSSA #1003, read-out: MIC alone
[3] = MSSA #1010, read-out: MIC alone
[4] = MSSA #1020, read-out: MIC alone
[5] = MSSA #1023, read-out: MIC alone
[6] = MSSA #1029, read-out: MIC alone
[7] = MSSA #1032, read-out: MIC alone

For `CCCCCCCCOC(=O)c1cc(O)c(O)c(O)c1` [Octyl gallate, n-octyl gallate], the “antibacterial activity when used alone” value [1] was “most potent”, the FIC value ([1]; MRSA COL) was 0.252 and the FIC value ([1]; MRSA Strain No. 5) was 0.75. For the same molecule, the MIC50 (MRSA and MSSA) was 31.3 µg/mL (≈ 111 µM), the MIC (MRSA and MSSA; ATCC 6538 / MRSA / MSSA, read-out: MIC alone) was 31.3 µg/mL (≈ 111 µM) and the MIC (MRSA and MSSA; COL, read-out: MIC alone) was 31.3 µg/mL (≈ 111 µM). The MIC (MRSA and MSSA; MRSA #1, read-out: MIC alone) was 31.3 µg/mL (≈ 111 µM), the MIC (MRSA and MSSA; MRSA #2, read-out: MIC alone) was 31.3 µg/mL (≈ 111 µM) and the MIC (MRSA and MSSA; MRSA #3, read-out: MIC alone) was 31.3 µg/mL (≈ 111 µM). For the same molecule, the MIC (MRSA and MSSA; MRSA #4, read-out: MIC alone) was 31.3 µg/mL (≈ 111 µM), the MIC (MRSA and MSSA; MRSA #5, read-out: MIC alone) was 31.3 µg/mL (≈ 111 µM) and the MIC (MRSA and MSSA; MRSA #6, read-out: MIC alone) was 31.3 µg/mL (≈ 111 µM). For the same molecule, the MIC (MRSA and MSSA; MRSA #7, read-out: MIC alone) was 31.3 µg/mL (≈ 111 µM), the MIC (MRSA and MSSA; MRSA #8, read-out: MIC alone) was 31.3 µg/mL (≈ 111 µM) and the MIC (MRSA and MSSA; MRSA #9, read-out: MIC alone) was 31.3 µg/mL (≈ 111 µM). For the same molecule, the MIC (MRSA and MSSA; MRSA #10, read-out: MIC alone) was 15.6 µg/mL (≈ 55.3 µM), the MIC (MRSA and MSSA; MRSA #12, read-out: MIC alone) was 31.3 µg/mL (≈ 111 µM) and the MIC (MRSA and MSSA; MRSA #16, read-out: MIC alone) was 31.3 µg/mL (≈ 111 µM). It also gave an MIC (MRSA and MSSA; MRSA #17, read-out: MIC alone) of 31.3 µg/mL (≈ 111 µM), an MIC (MRSA and MSSA; MRSA #18, read-out: MIC alone) of 31.3 µg/mL (≈ 111 µM) and an MIC (MRSA and MSSA; MRSA #20, read-out: MIC alone) of 31.3 µg/mL (≈ 111 µM). The MIC (MRSA and MSSA; MRSA #21, read-out: MIC alone) was 31.3 µg/mL (≈ 111 µM), the MIC (MRSA and MSSA; MRSA #22, read-out: MIC alone) was 31.3 µg/mL (≈ 111 µM) and the MIC (MRSA and MSSA; MRSA #24, read-out: MIC alone) was 31.3 µg/mL (≈ 111 µM). For the same molecule, the MIC (MRSA and MSSA; [2]) was 31.3 µg/mL (≈ 111 µM), the MIC (MRSA and MSSA; [3]) was 31.3 µg/mL (≈ 111 µM) and the MIC (MRSA and MSSA; [4]) was 31.3 µg/mL (≈ 111 µM). The MIC (MRSA and MSSA; [5]) was 31.3 µg/mL (≈ 111 µM), the MIC (MRSA and MSSA; [6]) was 31.3 µg/mL (≈ 111 µM) and the MIC (MRSA and MSSA; [7]) was 31.3 µg/mL (≈ 111 µM).
`CCCOC(=O)c1cc(O)c(O)c(O)c1` [Propyl gallate, n-propyl gallate] was tested, and the FIC value ([1]; MRSA COL) was 0.258, the FIC value ([1]; MRSA Strain No. 5) was 0.258 and the MIC (MRSA and MSSA; ATCC 6538 / MRSA / MSSA, ATCC6538, read-out: MIC alone) was 125 µg/mL (≈ 589 µM). The MIC (MRSA and MSSA; COL, read-out: MIC alone) was 125 µg/mL (≈ 589 µM), the MIC (MRSA and MSSA; MRSA #1, read-out: MIC alone) was 125 µg/mL (≈ 589 µM) and the MIC (MRSA and MSSA; MRSA #2, read-out: MIC alone) was 62.5 µg/mL (≈ 295 µM). The MIC (MRSA and MSSA; MRSA #3, read-out: MIC alone) was 125 µg/mL (≈ 589 µM), the MIC (MRSA and MSSA; MRSA #4, read-out: MIC alone) was 125 µg/mL (≈ 589 µM) and the MIC (MRSA and MSSA; MRSA #5, read-out: MIC alone) was 125 µg/mL (≈ 589 µM). It also gave an MIC (MRSA and MSSA; MRSA #6, read-out: MIC alone) of 62.5 µg/mL (≈ 295 µM), an MIC (MRSA and MSSA; MRSA #7, read-out: MIC alone) of 125 µg/mL (≈ 589 µM) and an MIC (MRSA and MSSA; MRSA #8, read-out: MIC alone) of 125 µg/mL (≈ 589 µM). The MIC (MRSA and MSSA; MRSA #9, read-out: MIC alone) was 62.5 µg/mL (≈ 295 µM), the MIC (MRSA and MSSA; MRSA #10, read-out: MIC alone) was 62.5 µg/mL (≈ 295 µM) and the MIC (MRSA and MSSA; MRSA #12, read-out: MIC alone) was 125 µg/mL (≈ 589 µM). For the same molecule, the MIC (MRSA and MSSA; MRSA #16, read-out: MIC alone) was 125 µg/mL (≈ 589 µM), the MIC (MRSA and MSSA; MRSA #17, read-out: MIC alone) was 62.5 µg/mL (≈ 295 µM) and the MIC (MRSA and MSSA; MRSA #18, read-out: MIC alone) was 62.5 µg/mL (≈ 295 µM). For the same molecule, the MIC (MRSA and MSSA; MRSA #20, read-out: MIC alone) was 125 µg/mL (≈ 589 µM), the MIC (MRSA and MSSA; MRSA #21, read-out: MIC alone) was 125 µg/mL (≈ 589 µM) and the MIC (MRSA and MSSA; MRSA #22, read-out: MIC alone) was 125 µg/mL (≈ 589 µM). For the same molecule, the MIC (MRSA and MSSA; MRSA #24, read-out: MIC alone) was 125 µg/mL (≈ 589 µM), the MIC (MRSA and MSSA; [2]) was 125 µg/mL (≈ 589 µM) and the MIC (MRSA and MSSA; [3]) was 125 µg/mL (≈ 589 µM). For the same molecule, the MIC (MRSA and MSSA; [4]) was 125 µg/mL (≈ 589 µM), the MIC (MRSA and MSSA; [5]) was 62.5 µg/mL (≈ 295 µM) and the MIC (MRSA and MSSA; [6]) was 62.5 µg/mL (≈ 295 µM). For the same molecule, the MIC (MRSA and MSSA; [7]) was 125 µg/mL (≈ 589 µM) and the MIC50 (MRSA and MSSA; compound alone, over all strains of Table 3-1, read-out: MIC50) was 125 µg/mL (≈ 589 µM).
With `CCCCCCCCCCCOC(=O)c1cc(O)c(O)c(O)c1` [Undecyl gallate, n-undecyl gallate] the “antibacterial activity when used alone” value [1] was “most potent”, the FIC value ([1]; MRSA COL) was 0.313 and the FIC value ([1]; MRSA Strain No. 5) was 0.251. The MIC50 (MRSA and MSSA) was 31.3 µg/mL (≈ 96.5 µM), the MIC (MRSA and MSSA; ATCC 6538 / MRSA / MSSA) was 31.3 µg/mL (≈ 96.5 µM) and the MIC (MRSA and MSSA; COL, compound alone, read-out: MIC) was 31.3 µg/mL (≈ 96.5 µM). It also gave an MIC (MRSA and MSSA; MRSA #1, compound alone, read-out: MIC) of 31.3 µg/mL (≈ 96.5 µM), an MIC (MRSA and MSSA; MRSA #2, compound alone, read-out: MIC) of 31.3 µg/mL (≈ 96.5 µM) and an MIC (MRSA and MSSA; MRSA #3, compound alone, read-out: MIC) of 31.3 µg/mL (≈ 96.5 µM). It also gave an MIC (MRSA and MSSA; MRSA #4, compound alone, read-out: MIC) of 31.3 µg/mL (≈ 96.5 µM), an MIC (MRSA and MSSA; MRSA #5, compound alone, read-out: MIC) of 31.3 µg/mL (≈ 96.5 µM) and an MIC (MRSA and MSSA; MRSA #6, compound alone, read-out: MIC) of 31.3 µg/mL (≈ 96.5 µM). For the same molecule, the MIC (MRSA and MSSA; MRSA #7, compound alone, read-out: MIC) was 31.3 µg/mL (≈ 96.5 µM), the MIC (MRSA and MSSA; MRSA #8, compound alone, read-out: MIC) was 31.3 µg/mL (≈ 96.5 µM) and the MIC (MRSA and MSSA; MRSA #9, compound alone, read-out: MIC) was 31.3 µg/mL (≈ 96.5 µM). For the same molecule, the MIC (MRSA and MSSA; MRSA #10, compound alone, read-out: MIC) was 31.3 µg/mL (≈ 96.5 µM), the MIC (MRSA and MSSA; MRSA #12, compound alone, read-out: MIC) was 31.3 µg/mL (≈ 96.5 µM) and the MIC (MRSA and MSSA; MRSA #16, compound alone, read-out: MIC) was 31.3 µg/mL (≈ 96.5 µM). It also gave an MIC (MRSA and MSSA; MRSA #17, compound alone, read-out: MIC) of 31.3 µg/mL (≈ 96.5 µM), an MIC (MRSA and MSSA; MRSA #18, compound alone, read-out: MIC) of 31.3 µg/mL (≈ 96.5 µM) and an MIC (MRSA and MSSA; MRSA #20, compound alone, read-out: MIC) of 31.3 µg/mL (≈ 96.5 µM). For the same molecule, the MIC (MRSA and MSSA; MRSA #21, compound alone, read-out: MIC) was 31.3 µg/mL (≈ 96.5 µM), the MIC (MRSA and MSSA; MRSA #22, compound alone, read-out: MIC) was 31.3 µg/mL (≈ 96.5 µM) and the MIC (MRSA and MSSA; MRSA #24, compound alone, read-out: MIC) was 31.3 µg/mL (≈ 96.5 µM). The MIC (MRSA and MSSA; MSSA #1003, compound alone, read-out: MIC) was 31.3 µg/mL (≈ 96.5 µM), the MIC (MRSA and MSSA; MSSA #1010, compound alone, read-out: MIC) was 31.3 µg/mL (≈ 96.5 µM) and the MIC (MRSA and MSSA; MSSA #1020, compound alone, read-out: MIC) was 31.3 µg/mL (≈ 96.5 µM). The MIC (MRSA and MSSA; MSSA #1023, compound alone, read-out: MIC) was 31.3 µg/mL (≈ 96.5 µM), the MIC (MRSA and MSSA; MSSA #1029, compound alone, read-out: MIC) was 31.3 µg/mL (≈ 96.5 µM) and the MIC (MRSA and MSSA; MSSA #1032, compound alone, read-out: MIC) was 31.3 µg/mL (≈ 96.5 µM).
